According to patent US10485769B2, “Cholesteryl ester transfer protein (CETP) inhibition in the treatment of cancer” (KING ABDULLAH UNIVERSITY OF SCIENCE AND TECHNOLOGY, priority 2015, dated 2019):

Tests used:
MCF-7 CETP siRNA cells = assay: MMP, caspase-3/7 activity and apoptosis in CETP knockdown MCF-7 cells; assay type: cell-based, human; details: 25 μM tamoxifen, 24 h, CETP knockout cells
Procedure: FIG. 10: The effect of CETP mRNA silencing on MMP (A), Capase-3/7 activity (B) and apoptosis in MCF-7 (C) and BJ (D) untransfected, cntl siRNA and CETP knockout cells after treatment with 10 μM PL or AP. Values represent the means±SD of three independent experiments.
FIG. 12: The effect of CETP mRNA knockout on Capase-3/7 activity (A) and apoptosis (B) in MCF-7 cntl siRNA and CETP knockout cells after treatment with 25 μM tamoxifen for 24 h. Values represent the means±SD of three independent experiments.
Since, as shown above, CETP is required for optimal growth of MCF-7 cells, we further hypothesized that CETP may help cancer cell to resist/escape apoptotic signals thus preventing cell death. Several apoptotic markers such as MOMP, phosphatidylserine exposure and caspase-3/7 activity were tested to establish a link between CETP and apoptosis.
Next, we intended to see if CETP silencing increased sensitivity of MCF-7 cells to apoptosis.
To test if effect of CETP knockout on apoptosis in MCF-7 is limited to AP, we treated the CETP knockout MCF-7 cells with tamoxifen (a known first line drug for breast cancer treatment). […] This observation was not limited to PL and AP as similar observations were made in CETP knockdown cells treated with tamoxifen (FIG. 12).

MCF-7 cells = assay: Mitochondrial Outer Membrane Potential (MOMP) by flow cytometry; assay type: cell-based, human; details: 10 μM PL, AP; 100 mM H2O2 positive control; versus untreated cells
Procedure: FIG. 2: Mode of induction in MCF-7 cells after treatment with AP and PL was determined by measuring changes in MOMP and levels of apoptosis-associated proteins. The cells were incubated with 10 μM AP and PL for different time intervals to capture the timeline of apoptosis induction in MCF-7 cells. The changes in MOMP were measured using flow cytometry after treating MCF-7 cells with PL and AP for 1, 2 and 4 h (A). The alteration in expression of several apoptosis-associated proteins were determined using western blotting after incubating MCF-7 cells for 1, 2, 4, 6 h with PL (C, E) and AP (D. F).
The changes in Mitochondrial Outer Membrane Potential (MOMP) and proteins involved in the apoptotic cascade were assessed (FIG. 2).

Structure (SMILES) | caspase-3/7 activity (MCF-7 CETP siRNA cells) | MOMP, fluorescence in the FL-2 channel (MCF-7 cells)
CC/C(=C(\c1ccccc1)c1ccc(OCCN(C)C)cc1)c1ccccc1 [tamoxifen] | significant increase | –
OO [H2O2] | – | lower fluorescent values
